PMC5979531, “Structural Requirements of Alkylglyceryl-L-Ascorbic Acid Derivatives for Melanogenesis Inhibitory Activity” (International Journal of Molecular Sciences, 2018)

Legend:
[1] = test system: B16 melanoma 4A5 cells; experiment: Theophylline-stimulated melanogenesis inhibition (melanin content); format: cell-based, murine; settings: for IC50: theophylline (1 mM)-stimulated B16 melanoma 4A5 cells
Protocol: (§1) The effects on theophylline-stimulated melanogenesis and viability of B16 melanoma 4A5 cells were examined according to previously described protocols. Briefly, murine B16 melanoma 4A5 cells were seeded into 48-well plates in DMEM. After 24 h of culture, a test compound and theophylline (1 mM) were added and incubated for 72 h. The melanin content and cell viability were then measured. IC50 values were determined graphically.
Inhibition (%) was calculated using the following formula, where A and B indicate the optical density of the vehicle- and test compound-treated groups, respectively, and C indicates cell viability (%) (see below): Inhibition (%) = [(A − B)/A]/(C/100) × 100.

[2] = Cell viability of B16 melanoma 4A5 cells; format: cell-based, murine; settings: mouse, B16 4A5 cells
Protocol: as §1

[3] = test system: tyrosinase from mushroom; experiment: Mushroom tyrosinase activity; format: biochemical
Protocol: Tyrosinase activities using L-tyrosine or L-DOPA as a substrate were determined according to the protocols described previously. Briefly, samples, L-tyrosine (2.5 mM, or L-DOPA, 3.0 mM), mushroom tyrosinase (46 units/mL), and phosphate buffer were mixed in a 96-well plate and incubated at 25 °C. (L-tyrosine; 30 min, L-DOPA; 5 min). The absorbance was then measured at 492 nm.

[4] = test system: tyrosinase mRNA; experiment: Expression of tyrosinase mRNA (qRT-PCR); format: cell-based, murine; settings: B16 4A5 cells, theophylline 1 mM, 72 h
Protocol: (§2) The expression of tyrosinase, TRP-1, and TRP-2 mRNA was assessed according to previously reported methods. Briefly, murine B16 melanoma 4A5 cells were seeded into 96-well plates in DMEM. After 24 h of culture, a test compound and theophylline (1 mM) were added and incubated for 72 h. Then, the amount of each mRNA was quantified by quantitative reverse transcription PCR.

[5] = test system: TRP-1 mRNA; experiment: Expression of TRP-1 mRNA (qRT-PCR); format: cell-based, murine; settings: B16 4A5 cells, theophylline 1 mM, 72 h
Protocol: as §2

[6] = test system: TRP-2 mRNA; experiment: Expression of TRP-2 mRNA (qRT-PCR); format: cell-based, murine; settings: B16 4A5 cells, theophylline 1 mM, 72 h
Protocol: as §2

[7] = Stability in aqueous solution at elevated temperature (HPLC residual ratio); format: physicochemical; settings: 20 mg/mL at 125 °C in the dark, after 3 h
Protocol: To determine stability, the samples were stored at 125 °C, and the residual ratio was calculated by measuring the remaining compound by HPLC. HPLC mobile phase conditions were as follows: AsA was described previously, 6 and 20 were 40% methanol containing 0.1% formic acid at flow rate of 0.2 mL/min [52, 53].

[8] = test system: tyrosinase protein; experiment: Expression of tyrosinase protein (western blotting); format: cell-based, murine; settings: B16 4A5 cells, theophylline 1 mM, 72 h
Protocol: The expression of tyrosinase protein was assessed according to a previously reported method. Briefly, murine B16 melanoma 4A5 cells were seeded into 6-well plates in DMEM. After 24 h of culture, a test compound and theophylline (1 mM) were added and incubated for 72 h. The expression of tyrosinase protein then was measured by western blotting.

[9] = Mus musculus, theophylline-stimulated B16 4A5 cells, 72 h

Structure (SMILES)	inhibition at 3 µM [1, 9]	inhibition at 10 µM [1, 9]	inhibition at 30 µM [1, 9]	inhibition at 100 µM [1, 9]	IC50 ([1]; Mus musculus, 72 h)	viability at 72 h, 3 µM [2]	viability at 72 h, 10 µM [2]	viability at 72 h, 30 µM [2]	viability at 72 h, 100 µM [2]	Inhibition (%) of mushroom tyrosinase ([3]; Substrate: L-DOPA, 10 µM)	Inhibition (%) of mushroom tyrosinase ([3]; Substrate: L-DOPA, 30 µM)	Inhibition (%) of mushroom tyrosinase ([3]; Substrate: L-Tyrosine, 10 µM)	Inhibition (%) of mushroom tyrosinase ([3]; Substrate: L-Tyrosine, 30 µM)	Inhibition (%) of mushroom tyrosinase ([3]; Substrate: L-DOPA, 100 µM)	Inhibition (%) of mushroom tyrosinase ([3]; Substrate: L-Tyrosine, 100 µM)	other results
CCCCCCCCCCCCCCOC1=C(OCC(O)CO)C(=O)O[C@@H]1[C@@H](O)CO (stereo partly shown) [compound 28, 2-O-(2,3-dihydroxypropyl)-3-O-tetradecyl-AsA]	32.8 ± 7.2%	75.7 ± 3.9%	95.9 ± 8.4%	95.2 ± 20.7%	5 µM	85.1%	62.6%	23%	18.1%	−5.7 ± 9.5%	−8.1 ± 5.2%	−4.4 ± 4.6%	−8.4 ± 1.0%			potency relative to arbutin (melanogenesis inhibition) ([1]; ratio of IC50 values vs arbutin): more than 166 fold; Tyrosinase mRNA/β-actin mRNA ([4]; 3 µM): 0.54 ± 0.03; TRP-1 mRNA/β-actin mRNA ([5]; 3 µM): 0.88 ± 0.20; TRP-1 mRNA/β-actin mRNA ([5]; 10 µM): 0.83 ± 0.27; TRP-2 mRNA/β-actin mRNA ([6]; 3 µM): 0.43 ± 0.11
O=C1O[C@H]([C@@H](O)CO)C(O)=C1O [AsA, L-ascorbic acid]					> 3000 µM											inhibition at 1000 µM [1, 9]: -17.4 ± 4%; inhibition at 3000 µM [1, 9]: 3.8 ± 4.7%; viability at 72 h, 1000 µM [2]: 104%; viability at 72 h, 3000 µM [2]: 89.2%; Residual ratio in aqueous solution [7]: 9%
CCCCCCOC1=C(OCC(O)CO)C(=O)O[C@@H]1[C@@H](O)CO (stereo partly shown) [compound 20, 2-O-(2,3-dihydroxypropyl)-3-O-hexyl-AsA]				43.5 ± 2.6%	117 µM				95.3%		−5.7 ± 5.1%		1.4 ± 4.7%	−2.4 ± 4.2%	−6.1 ± 0.6%	inhibition at 300 µM ([1]; Mus musculus, 300 µM, theophylline-stimulated B16 4A5 cells, 72 h): 77 ± 2.1%; inhibition at 1000 µM [1, 9]: 94.9 ± 1.5%; inhibition at 3000 µM [1, 9]: 80.9 ± 4.1%; viability at 72 h, 300 µM ([2]; 300 µM): 83.9%; viability at 72 h, 1000 µM [2]: 60.8%; viability at 72 h, 3000 µM [2]: 44.7%; Residual ratio in aqueous solution [7]: 82%; Tyrosinase mRNA/β-actin mRNA ([4]; 30 µM): 0.72 ± 0.10; TRP-1 mRNA/β-actin mRNA ([5]; 30 µM): 0.67 ± 0.12; TRP-2 mRNA/β-actin mRNA ([6]; 30 µM): 1.07 ± 0.30; TRP-2 mRNA/β-actin mRNA ([6]; 100 µM): 0.88 ± 0.25; expression of tyrosinase protein (in words) [8]: suppressed tyrosinase protein expression in a concentration-dependent manner
CCCCCCCOC1=C(OCC(O)CO)C(=O)O[C@@H]1[C@@H](O)CO (stereo partly shown) [compound 21, 2-O-(2,3-dihydroxypropyl)-3-O-heptyl-AsA]	-6.3 ± 2.7%	0.9 ± 8.2%	21 ± 5%	44.6 ± 6.2%	> 100 µM	97.9%	92.7%	92.7%	86.3%		−10.0 ± 1.7%		−9.2 ± 2.1%	−11.3 ± 2.4%	−9.8 ± 3.9%	
CCCCCCCCCOC1=C(OCC(O)CO)[C@@H]([C@@H](O)CO)OC1=O (stereo partly shown) [compound 9, 3-O-(2,3-dihydroxypropyl)-2-O-nonyl-AsA]	0.2 ± 4.4%	19.1 ± 1.3%	51.9 ± 4.6%	91.6 ± 1.2%	28.8 µM	99.2%	88.9%	77.6%	58.4%		4.8 ± 6.6%		4.0 ± 6.1%	0.9 ± 6.0%	−1.2 ± 4.5%	
CCCCCCCCCCOC1=C(OCC(O)CO)C(=O)O[C@@H]1[C@@H](O)CO (stereo partly shown) [compound 24, 3-O-decyl-2-O-(2,3-dihydroxypropyl)-AsA]	-5.8 ± 6%	20.9 ± 5.4%	64.3 ± 3.8%	103 ± 2.4%	23.5 µM	92.5%	87.1%	68.5%	34.3%	0.7 ± 3.8%	−5.3 ± 4.2%	−4.1 ± 5.3%	−3.1 ± 4.1%			
CCCCCCCCOC1=C(OCC(O)CO)[C@@H]([C@@H](O)CO)OC1=O (stereo partly shown) [compound 8, 3-O-(2,3-dihydroxypropyl)-2-O-octyl-AsA]	5.7 ± 6.9%	10.6 ± 4.6%	22.4 ± 4.4%	64.1 ± 8.2%	68.8 µM	108%	103%	92.5%	80%		2.4 ± 1.1%		−0.3 ± 2.3%	2.3 ± 2.7%	−0.6 ± 4.3%	
CCCCCCCCCCCCCCOC1=C(OCC(O)CO)[C@@H]([C@@H](O)CO)OC1=O (stereo partly shown) [compound 14, 3-O-(2,3-dihydroxypropyl)-2-O-tetradecyl-AsA]	6.3 ± 2.6%	48.4 ± 2.2%	97.6 ± 1.8%	100 ± 18.2%	11.1 µM	101%	89.1%	56.3%	21%	−8.9 ± 3.5%	−8.2 ± 4.3%	−7.0 ± 6.7%	−9.7 ± 2.7%			Tyrosinase mRNA/β-actin mRNA ([4]; 3 µM): 0.78 ± 0.10; TRP-1 mRNA/β-actin mRNA ([5]; 3 µM): 1.02 ± 0.27; TRP-1 mRNA/β-actin mRNA ([5]; 10 µM): 0.92 ± 0.22; TRP-2 mRNA/β-actin mRNA ([6]; 3 µM): 0.58 ± 0.06
